Assay results reported in patent US4022895A, “Substituted phenylglycylcephalosporins” (SmithKline Corporation, priority 1975, dated 1977).
Values after ≈ are worked out from the molar mass of the structure shown. Read-outs that look alike come from different tables or passages of the source.

Columns and labels:
E. coli HH 33779 = assay: In vitro antibacterial activity (MIC); type: cell-based; details: Escherichia coli, HH33779; E. coli HH 33779, in vitro; read-out: MIC
Protocol: (§1) The compounds of this invention have antibacterial activity against Gram-positive and Gram-negative organisms. Minimum inhibitory concentrations (MIC's) ranged from 0.4 to >200 μg/ml in in vitro testing.

E.coli SK 12140 = assay: In vitro antibacterial activity (MIC); type: cell-based; details: Escherichia coli, SK12140
Protocol: as §1

[1] = system: Entero. aerog. ATCC 13048; assay: In vitro antibacterial activity (MIC); type: cell-based; details: Entero. aerog. ATCC 13048, in vitro; read-out: MIC
Protocol: as §1

Kleb. pneumo. SK 1200 = assay: In vitro antibacterial activity (MIC); type: cell-based
Protocol: as §1

S.aureus HH 127 = assay: In vitro antibacterial activity (MIC); type: cell-based; details: Staphylococcus aureus, HH127
Protocol: as §1

S.aureus SK 23390 = assay: In vitro antibacterial activity (MIC); type: cell-based; details: Staphylococcus aureus, SK23390
Protocol: as §1

S.aureus Villaluz = assay: In vitro antibacterial activity (MIC); type: cell-based; details: Staphylococcus aureus
Protocol: as §1

Shig. paradys HH 112 = assay: In vitro antibacterial activity (MIC); type: cell-based; details: Shig. paradys HH 112, in vitro; read-out: MIC
Protocol: as §1

Strep. faecalis HH 34358 = assay: In vitro antibacterial activity (MIC); type: cell-based; details: Enterococcus faecalis, HH34358; Strep. faecalis HH 34358, in vitro
Protocol: as §1

Kleb. pneumo. SK 4200 = assay: In vitro antibacterial activity (MIC); type: cell-based
Protocol: as §1

[2] = system: Sal. paratyphl ATCC 12176; assay: In vitro antibacterial activity (MIC); type: cell-based
Protocol: as §1

E.coli 12140 = assay: In vivo activity (ED50) against E.coli 12140
Klebs.pneumo. 4200 = assay: In vivo activity (ED50) against Klebs.pneumo. 4200
Proteus morgani 179 = assay: In vitro antibacterial activity (MIC); type: cell-based; details: Proteus morgani 179, in vitro; read-out: MIC
Protocol: as §1

[3] = E.coli SK 12140, in vitro, read-out: MIC
[4] = Kleb. pneumo. SK 1200, in vitro, read-out: MIC
[5] = S.aureus HH 127, in vitro, read-out: MIC
[6] = S.aureus SK 23390, in vitro, read-out: MIC
[7] = Kleb. pneumo. SK 4200, in vitro, read-out: MIC
[8] = Escherichia coli, 12140, sc, E.coli 12140, s.c.
[9] = po, Klebs.pneumo. 4200, p.o., read-out: ED50
[10] = Escherichia coli, 12140, po, E.coli 12140, p.o.
[11] = sc, Klebs.pneumo. 4200, s.c., read-out: ED50

Row | SMILES | MIC (E. coli HH 33779) [µg/mL] | MIC (E.coli SK 12140; [3]) [µg/mL] | MIC [1] [µg/mL] | MIC (Kleb. pneumo. SK 1200; [4]) [µg/mL] | MIC (S.aureus HH 127; [5]) [µg/mL] | MIC (S.aureus SK 23390; [6]) [µg/mL] | MIC (S.aureus Villaluz) [µg/mL] | MIC (Shig. paradys HH 112) [µg/mL] | MIC (Strep. faecalis HH 34358) [µg/mL] | MIC (Kleb. pneumo. SK 4200; [7]) [µg/mL] | MIC [2] [µg/mL] | ED50 (E.coli 12140; [8]) [mg/kg] | ED50 (Klebs.pneumo. 4200; [9]) [mg/kg] | ED50 (E.coli 12140; [10]) [mg/kg] | ED50 (Klebs.pneumo. 4200; [11]) [mg/kg] | MIC (Proteus morgani 179) [µg/mL] | also measured
1 | CC1=C(C(=O)O)N2C(=O)C(NC(=O)C(N)c3ccc(OCC(=O)O)cc3)C2SC1 (racemic) [*08016, 7-[DL-α-amino-α-(4'-carboxymethoxyphenyl)acetamido]-3-desacetoxycephalosporanic acid] | 50 (≈ 119 µM) | 50 (≈ 119 µM) | 100 (≈ 237 µM) | 25 (≈ 59.3 µM) | 50 (≈ 119 µM) | 50 (≈ 119 µM) | > 200 | 50 (≈ 119 µM) | > 200 |  |  |  |  |  |  |  | 
2 | Cc1nnc(SCC2=C(C(=O)O)N3C(=O)C(NC(=O)C(N)c4ccc(OCC(=O)O)cc4)C3SC2)s1 (stereo not drawn) [*59216] | 6.3 to 25 (≈ 11.4 to 45.3 µM) |  | 12.5 to 50 (≈ 22.7 to 90.6 µM) |  | 6.3 to 25 (≈ 11.4 to 45.3 µM) | 100 to 200 (≈ 181 to 363 µM) | 100 to 200 (≈ 181 to 363 µM) | 1.6 to 12.5 (≈ 2.9 to 22.7 µM) | 50 to 200 (≈ 90.6 to 363 µM) | 1.6 to 6.3 (≈ 2.9 to 11.4 µM) | 3.1 to 12.5 (≈ 5.62 to 22.7 µM) | 6.2 | 29 |  |  |  | MIC (E.coli SK 12140): 3.1 to 12.5 µg/mL (≈ 5.62 to 22.7 µM); MIC (Kleb. pneumo. SK 1200): 3.1 to 12.5 µg/mL (≈ 5.62 to 22.7 µM)
3 | Cc1nnc(SCC2=C(C(=O)O)N3C(=O)C(NC(=O)C(N)c4ccc(OCC(N)=O)cc4)C3SC2)s1 (stereo not drawn) [*71816] | 50 (≈ 90.8 µM) | 50 (≈ 90.8 µM) | 100 (≈ 182 µM) | 50 (≈ 90.8 µM) | 25 (≈ 45.4 µM) |  | 100 (≈ 182 µM) | 12.5 (≈ 22.7 µM) | 200 (≈ 363 µM) | 25 (≈ 45.4 µM) | 12.5 (≈ 22.7 µM) | 13.7 | 13.7 | 21.5 | 11.5 |  | MIC (S.aureus SK 23390): 12.5 µg/mL (≈ 22.7 µM)
4 | CC1=C(C(=O)O)N2C(=O)C(NC(=O)[C@H](N)c3ccc(OCC(N)=O)cc3)C2SC1 (stereo partly drawn) [Compound No. 00036, 7-[D-α-Amino-α-(4'-carbamylmethoxyphenyl)acetamido]-3-desacetoxycephalosporanic acid] | 50 (≈ 119 µM) | 25 (≈ 59.5 µM) | 100 (≈ 238 µM) | 25 (≈ 59.5 µM) | 3.1 (≈ 7.37 µM) | 3.1 (≈ 7.37 µM) | 200 (≈ 476 µM) | 12.5 (≈ 29.7 µM) | 50 (≈ 119 µM) | 25 (≈ 59.5 µM) |  |  |  |  |  |  | 
5 | N[C@@H](C(=O)NC1C(=O)N2C(C(=O)O)=C(CSc3c[nH]nn3)CSC12)c1ccc(SCC(=O)O)cc1 (stereo partly drawn) [Compound No. 04726, 7-[D-α-Amino-α-(4'-carboxymethylthiophenyl)-acetamido]-3-(1,2,3,-triazol-4-ylthiomethyl)-3-cephem-4-carboxylic acid] | 12.5 (≈ 23.3 µM) | 25 (≈ 46.6 µM) | 25 (≈ 46.6 µM) | 3.1 (≈ 5.78 µM) | 12.5 (≈ 23.3 µM) | 12.5 (≈ 23.3 µM) | 100 (≈ 186 µM) | 6.3 (≈ 11.7 µM) | 200 (≈ 373 µM) | 3.1 (≈ 5.78 µM) |  | 12.5 | 14.5 | 46 | 9.5 |  | 
6 | COC(=O)COc1ccc([C@@H](N)C(=O)NC2C(=O)N3C(C(=O)O)=C(C)CSC23)cc1 (stereo partly drawn) [Compound No. 07826, 7-[D-α-Amino-α-(4'-carbomethoxymethoxyphenyl)acetamido]-3-desacetoxycephalosporanic acid] | > 200 | 100 (≈ 230 µM) | > 200 | 100 (≈ 230 µM) | 6.3 (≈ 14.5 µM) | 6.3 (≈ 14.5 µM) | 200 (≈ 459 µM) | 50 (≈ 115 µM) | 100 (≈ 230 µM) | 100 (≈ 230 µM) | 50 (≈ 115 µM) |  |  |  |  |  | 
7 | CC1=C(C(=O)O)N2C(=O)C(NC(=O)[C@H](N)c3ccc(NCC(=O)O)cc3)C2SC1 (stereo partly drawn) [Compound No. 51436, 7-[D-α-Amino-α-(4'-carboxymethylaminophenyl)acetamido]-3-desacetoxycephalosphoranic acid] | 25 (≈ 59.5 µM) | 25 (≈ 59.5 µM) | 100 (≈ 238 µM) | 50 (≈ 119 µM) |  |  | 200 (≈ 476 µM) | 25 (≈ 59.5 µM) | 200 (≈ 476 µM) |  |  |  |  |  |  |  | MIC (Kleb. pneumo. SK 4200): 12.5 µg/mL (≈ 29.7 µM); MIC (S.aureus HH 127): 12.5 µg/mL (≈ 29.7 µM); MIC (S.aureus SK 23390): 12.5 µg/mL (≈ 29.7 µM)
8 | CC(=O)OCC1=C(C(=O)O)N2C(=O)C(NC(=O)[C@H](N)c3ccc(OCC(=O)O)cc3)C2SC1 (stereo partly drawn) [Compound No. 60326, 7-[D-α-Amino-α-(4'-carboxymethoxyphenyl)acetamido]-cephalosporanic acid] | 25 (≈ 52.1 µM) | 6.3 (≈ 13.1 µM) | 25 (≈ 52.1 µM) | 6.3 (≈ 13.1 µM) | 12.5 (≈ 26.1 µM) | 12.5 (≈ 26.1 µM) | 200 (≈ 417 µM) |  | 200 (≈ 417 µM) | 6.3 (≈ 13.1 µM) | 3.1 (≈ 6.47 µM) | 11.2 | 63 | 200 | 12.5 | > 200 | 
9 | Cc1nnc(SCC2=C(C(=O)O)N3C(=O)C(NC(=O)[C@H](N)c4ccc(SCCC(=O)O)cc4)C3SC2)s1 (stereo partly drawn) [Compound No. 61726, 7-[D-α-Amino-α-(4'-carboxyethylthiophenyl)acetamido]-3-(5-methyl-1,3,4-thiadiazol-2-ylthiomethyl)-3-cephem-4-carboxylic acid] | 25 (≈ 43 µM) |  | 25 (≈ 43 µM) | 6.3 (≈ 10.8 µM) | 6.3 (≈ 10.8 µM) | 6.3 (≈ 10.8 µM) | 50 (≈ 86 µM) |  | 50 (≈ 86 µM) | 6.3 (≈ 10.8 µM) | 12.5 (≈ 21.5 µM) |  | > 50 |  | 50 | 200 (≈ 344 µM) | MIC (E.coli SK 12140): 12.5 µg/mL (≈ 21.5 µM)
10 | COC(=O)COc1ccc([C@@H](N)C(=O)NC2C(=O)N3C(C(=O)O)=C(CSc4nnc(C)s4)CSC23)cc1 (stereo partly drawn) [Compound No. 96826, 7-[D-α-Amino-α-(4'-carbomethoxymethoxyphenyl)acetamido]-3-(5-methyl-1,3,4-thiadiazol-2-ylthiomethyl)-3-cephem-4-carboxylic acid] | 50 (≈ 88.4 µM) | 25 (≈ 44.2 µM) | 50 (≈ 88.4 µM) | 25 (≈ 44.2 µM) | 3.1 (≈ 5.48 µM) | 3.1 (≈ 5.48 µM) | 25 (≈ 44.2 µM) | 12.5 (≈ 22.1 µM) | 25 (≈ 44.2 µM) | 25 (≈ 44.2 µM) |  | < 3 |  | 9.4 | 7.2 | 25 (≈ 44.2 µM) | ED50 (Klebs.pneumo. 4200; po): 12.5 mg/kg
11 | CC1=C(C(=O)O)N2C(=O)C(NC(=O)[C@H](N)c3ccc(SCC(=O)O)cc3)C2SC1 (stereo partly drawn) [compound 99316, 7-[D-α-Amino-α-(4'-carboxymethylthiophenyl)acetamido]-3-desacetoxycephalosporanic acid] | 50 (≈ 114 µM) |  | 50 (≈ 114 µM) | 6.3 (≈ 14.4 µM) |  |  | 100 (≈ 229 µM) |  | > 200 |  |  | 25 | 15.5 | 42 |  | > 200 | MIC (E.coli SK 12140): 12.5 µg/mL (≈ 28.6 µM); MIC (Kleb. pneumo. SK 4200): 12.5 µg/mL (≈ 28.6 µM); MIC (S.aureus HH 127): 12.5 µg/mL (≈ 28.6 µM); MIC (S.aureus SK 23390): 12.5 µg/mL (≈ 28.6 µM)
